# Data reported in patent publication EP4635500A1, “THERAPEUTIC AGENT FOR BACTERIAL INFECTION” (Sumitomo Pharma Co., Ltd., priority 2022, dated 2024).
# Read-outs that look alike come from different tables or passages of the source.
# Tested on: Enterobacterales
# Assay: MIC, broth microdilution, CDC/FDA Antibiotic Resistance Isolate Bank (Example 7, Tables 8, 11, 12)
# Assay type: cell-based
smiles,measurement,setting,value
"C[C@@H](O)[C@H]1C(=O)N2C(C(=O)O)=C(S[C@@H]3CN[C@H](C(=O)N(C)C)C3)[C@H](C)[C@H]12 [MEPM, meropenem]",MIC,"Escherichia coli, KUB No. 5782, AR Bank# 436, no carbapenemase genes, read-out: MIC",≤ 0.06 µg/mL
same,MIC,"Escherichia coli, KUB No. 5783, AR Bank# 437, no carbapenemase genes, read-out: MIC",≤ 0.06 µg/mL
same,MIC,"Escherichia coli, KUB No. 5794, AR Bank# 450, no carbapenemase genes, read-out: MIC",16 µg/mL
same,MIC,"Escherichia coli, KUB No. 5796, AR Bank# 452, NDM-5, read-out: MIC",2 µg/mL
same,MIC,"Klebsiella aerogenes, Enterobacter aerogenes, KUB No. 5559, AR Bank # 62, no carbapenemase gene, read-out: MIC",0.12 µg/mL
same,MIC,"Klebsiella aerogenes, Enterobacter aerogenes, KUB No. 5571, AR Bank # 74, OXA-48, read-out: MIC",0.5 µg/mL
same,MIC,"Klebsiella aerogenes, Enterobacter aerogenes, KUB No. 5658, AR Bank# 161, IMP-4, read-out: MIC",1 µg/mL
same,MIC,"Klebsiella aerogenes, Enterobacter aerogenes, KUB No. 5777, AR Bank# 431, no carbapenemase genes, read-out: MIC",≤ 0.06 µg/mL
same,MIC,Klebsiella ornithinolytica,0.25 µg/mL
same,MIC,"Klebsiella oxytoca, KUB No. 5568, AR Bank # 71, no carbapenemase gene, read-out: MIC",8 µg/mL
same,MIC,"Klebsiella oxytoca, KUB No. 5644, AR Bank# 147, KPC-3, read-out: MIC",0.25 µg/mL
same,MIC,"Klebsiella oxytoca, KUB No. 5771, AR Bank# 375, no carbapenemase genes, read-out: MIC",≤ 0.06 µg/mL
same,MIC,"Klebsiella oxytoca, KUB No. 5776, AR Bank# 380, no carbapenemase genes, read-out: MIC",2 µg/mL
same,MIC,"Klebsiella ozaenae, KUB No. 5548, AR Bank # 51, OXA-181, read-out: MIC",1 µg/mL
same,MIC,"Klebsiella ozaenae, KUB No. 5593, AR Bank # 96, KPC-3, read-out: MIC",32 µg/mL
same,MIC,"Klebsiella pnemnonice, KUB No. 5784, AR Bank# 438, KPC-3, read-out: MIC",> 32 µg/mL
same,MIC,"Klebsiella pneumoniae, KUB No. 5531, AR Bank # 34, IMP-4, read-out: MIC",0.25 µg/mL
same,MIC,"Klebsiella pneumoniae, KUB No. 5536, AR Bank # 39, OXA-181, read-out: MIC",1 µg/mL
same,MIC,"Klebsiella pneumoniae, KUB No. 5537, AR Bank # 40, VIM-27, read-out: MIC",> 32 µg/mL
same,MIC,"Klebsiella pneumoniae, KUB No. 5538, AR Bank # 41, NDM-1, read-out: MIC",8 µg/mL
same,MIC,"Klebsiella pneumoniae, KUB No. 5540, AR Bank # 43, no carbapenemase gene, read-out: MIC",0.5 µg/mL
same,MIC,"Klebsiella pneumoniae, KUB No. 5541, AR Bank # 44, no carbapenemase gene, read-out: MIC",2 µg/mL
same,MIC,"Klebsiella pneumoniae, KUB No. 5543, AR Bank # 46, VIM-27, read-out: MIC",32 µg/mL
same,MIC,"Klebsiella pneumoniae, KUB No. 5544, AR Bank # 47, no carbapenemase gene, read-out: MIC",4 µg/mL
same,MIC,"Klebsiella pneumoniae, KUB No. 5546, AR Bank # 49, NDM-1, read-out: MIC",32 µg/mL
same,MIC,"Klebsiella pneumoniae, KUB No. 5563, AR Bank # 66, OXA-232, read-out: MIC",8 µg/mL
same,MIC,"Klebsiella pneumoniae, KUB No. 5565, AR Bank # 68, OXA-232, NDM-1, read-out: MIC",> 32 µg/mL
same,MIC,"Klebsiella pneumoniae, KUB No. 5573, AR Bank # 76, VIM-1, read-out: MIC",2 µg/mL
same,MIC,"Klebsiella pneumoniae, KUB No. 5576, AR Bank # 79, no carbapenemase gene, read-out: MIC",4 µg/mL
same,MIC,"Klebsiella pneumoniae, KUB No. 5577, AR Bank # 80, IMP-4, read-out: MIC",4 µg/mL
same,MIC,"Klebsiella pneumoniae, KUB No. 5584, AR Bank # 87, no carbapenemase gene, read-out: MIC",≤ 0.06 µg/mL
same,MIC,"Klebsiella pneumoniae, KUB No. 5594, AR Bank # 97, KPC-3, read-out: MIC",32 µg/mL
same,MIC,"Klebsiella pneumoniae, KUB No. 5595, AR Bank # 98, KPC-2, read-out: MIC",8 µg/mL
same,MIC,"Klebsiella pneumoniae, KUB No. 5603, AR Bank # 106, NDM-1, read-out: MIC",> 32 µg/mL
same,MIC,"Klebsiella pneumoniae, KUB No. 5604, AR Bank # 107, no carbapenemase gene, read-out: MIC",16 µg/mL
same,MIC,"Klebsiella pneumoniae, KUB No. 5606, AR Bank # 109, no carbapenemase gene, read-out: MIC",8 µg/mL
same,MIC,"Klebsiella pneumoniae, KUB No. 5609, AR Bank # 112, KPC-3, read-out: MIC",4 µg/mL
same,MIC,"Klebsiella pneumoniae, KUB No. 5610, AR Bank # 113, KPC-3, read-out: MIC",> 32 µg/mL
same,MIC,"Klebsiella pneumoniae, KUB No. 5612, AR Bank # 115, KPC-3, read-out: MIC",8 µg/mL
same,MIC,"Klebsiella pneumoniae, KUB No. 5614, AR Bank # 117, KPC-3, read-out: MIC",16 µg/mL
same,MIC,"Klebsiella pneumoniae, KUB No. 5617, AR Bank # 120, KPC-2, read-out: MIC",16 µg/mL
same,MIC,"Klebsiella pneumoniae, KUB No. 5622, AR Bank # 125, KPC-3, read-out: MIC",16 µg/mL
same,MIC,"Klebsiella pneumoniae, KUB No. 5623, AR Bank # 126, KPC-2, read-out: MIC",4 µg/mL
same,MIC,"Klebsiella pneumoniae, KUB No. 5626, AR Bank # 129, KPC-3, read-out: MIC",4 µg/mL
same,MIC,"Klebsiella pneumoniae, KUB No. 5632, AR Bank# 135, VIM-1, read-out: MIC",0.5 µg/mL
same,MIC,"Klebsiella pneumoniae, KUB No. 5635, AR Bank# 138, NDM-7, read-out: MIC",> 32 µg/mL
